Results taken from PMC5149029, “New Aspects of Silibinin Stereoisomers and their 3-O-galloyl Derivatives on Cytotoxicity and Ceramide Metabolism in Hep G2 hepatocarcinoma Cell Line” (Iranian Journal of Pharmaceutical Research : IJPR, 2016).
Marks after values point to notes of the source that are not given here.

What was measured:
[1] = target: T1, glucosyl ceramide synthase (GCS) (Homo sapiens, UniProt Q16739); assay: GCS activity assay (C6-NBD-ceramide, HPLC); assay type: cell-based; details: Hep G2, 0-200 µM
T1 construct: endogenous in cells; host or cells: Hep G2
T1 sequence (Q16739 1-394): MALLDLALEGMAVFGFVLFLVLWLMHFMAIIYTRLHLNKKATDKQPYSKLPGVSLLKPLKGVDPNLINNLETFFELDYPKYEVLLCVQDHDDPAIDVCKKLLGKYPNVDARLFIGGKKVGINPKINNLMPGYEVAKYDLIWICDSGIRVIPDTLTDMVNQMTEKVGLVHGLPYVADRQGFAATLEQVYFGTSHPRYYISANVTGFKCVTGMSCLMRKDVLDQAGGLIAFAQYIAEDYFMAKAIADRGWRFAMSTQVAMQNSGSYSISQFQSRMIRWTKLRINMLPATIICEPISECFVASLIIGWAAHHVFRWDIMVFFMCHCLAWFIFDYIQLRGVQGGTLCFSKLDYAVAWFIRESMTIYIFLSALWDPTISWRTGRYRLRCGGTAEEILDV
Experimental: (§1) The cell line was grown in RPMI-1640 medium supplemented with L-glutamine 2 mM, HEPESNa 25 mM, penicillin 100 U/mL, streptomycin 100 μg/mL and 10% […] (FBS) at 37 °C in a humidified atmosphere containing 5% CO2. Hep G2 cells were seeded at 1 × 10^6 cells/mL and sub cultured every 2–3 days after 60–80% confluence was reached. To prepare the lysates cells attached to the culture plate were scraped off with a cell scraper and collected in a 1.5 mL tube by centrifugation. The cell pellets were rinsed with PBS, suspended in sterile water, and then lysed by sonication. For each experiment, the cells were treated separately with increasing concentrations of silibinin derivatives (0, 25, 50, 75, 100, 125, 150, 175 and 200 μM) and incubated for 48 h.
To determine GCS activities, the fluorescent acceptor substrate C6-4-nitrobenzo-2-oxa-1,3-diazole (NBD)-ceramide and a normal-phase HPLC were used. Acceptor substrate, 50 pM of C6-NBD-Cer and 6.5 nM of lecithin were mixed in 100 µL of ethanol and then the solvent was evaporated. Next, 10 µL of water was added and the mixture was sonicated to form liposomes. For the GCS assay, 50 µL of reaction mixture contains 500 µM UDP-Glc, 1mM EDTA, 10 µL of C6-NBD-Cer liposome and 20 µL of an appropriate amount of enzyme in lysis buffer. Addition of conduritol B epoxide (CBE) at 2.5 mM is effective at inhibiting the glycosidase activity. Standard assays were carried out at 37 °C for 1 h. The reaction was stopped by adding 200 µL of chloroform/methanol (2:1, v/v). After a few seconds of vortexing, 5 µL of 500 µM KCl was added and then centrifuged. After the organic phase had dried up, lipids were dissolved in 200 µL of isopropyl alcohol/n-hexane/H2O (55:44:1) and then transferred to a glass vial in auto sampler. A 100 µL aliquot of sample was automatically loaded onto a normal-phase column (Intersil SIL 150A-5, 4.6 x 250 mm, GL Sciences, Japan) and eluted with isopropyl alcohol/n-hexane/H2O (55:44:1) at a flow rate of 2.0 mL/min. Fluorescence was determined using a fluorescent detector (Hitachi L-7480) set to excitation and emission wavelengths of 470 and 530 nm, respectively. The fluorescent peaks were identified by comparing their retention times with those of standards ([37]).

caspase-3 = assay: Caspase-3 activity, colorimetric substrate Ac-DEVD-pNA; assay type: cell-based, human; details: Hep G2, 48 h, control 0.38
Experimental: as §1
(§2) The activities of caspase-3 and 9 were measured using colorimetric substrates. Cells were added to a lysis buffer (100 mM HEPES [pH 7.5], 0.1% CHAPS, 1 mM PMSF, 10 mM MDTT, 1 mM EDTA) and placed on ice for 30 min. After the cells were centrifuged at 10,000 × g for 10 min at 4 °C, 50 μg of protein from the supernatants was added to each of the caspase substrates. The colorimetric substrates for caspase-3 and 9 were Ac-DEVD-pNA (Asp-Glu-Val-Asp-pNA) and Ac-LEHD-pNA (N-acetyl-Leu-Glu-His-Asp-pNA), respectively. After a 2 h incubation, to measure p-nitroanilide absorbance was determined at 405 nm ([34]).

Hep G2 cells = assay: Cell viability, MTT colorimetric assay; assay type: cell-based; details: Hep G2, 48 h
Experimental: The cell line was grown in RPMI-1640 medium supplemented with L-glutamine 2 mM, HEPESNa 25 mM, penicillin 100 U/mL, streptomycin 100 μg/mL and 10% phosphate-buffered saline (FBS) at 37 °C in a humidified atmosphere containing 5% CO2. Hep G2 cells were seeded at 1 × 10^6 cells/mL and sub cultured every 2–3 days after 60–80% confluence was reached. […] For each experiment, the cells were treated separately with increasing concentrations of silibinin derivatives (0, 25, 50, 75, 100, 125, 150, 175 and 200 μM) and incubated for 48 h.
To measure cell viability, the 3-(4,5-dimethylthiazol-2-yl)-2,5-diphenyl tetrazolium bromide (MTT) colorimetric assay was performed as published ([32], [33]). Briefly, Hep G2 cells were seeded onto 96 flat bottom well plates (50 × 10^3 cells/well) and grown overnight. After the incubation period with silibinin isomers, cells were washed twice with phosphate-buffered saline solution and incubated with MTT solution at a final concentration of 0.5 mg/mL for 3 h and then lysed in dimethyl sulfoxide. Optical density was measured at 540 nm and the background absorbance measured at 660 nm was subtracted. Each experiment was replicated separately for three times.

[2] = system: Neutral sphingomyelinase (NSMase); assay: NSMase activity assay (Amplex Red kit); assay type: cell-based, human; details: Hep G2, 125 µM and higher concentrations
Experimental: as §1
Amplex™ Red NSMase Assay Kit (AAT Bioquest®, Inc. product no: 13620) was used to determine NSMases activity. The kit uses Amplite™ Red as a colorimetric probe to indirectly quantify the phosphocholine produced from the hydrolysis of sphingomyelin by NSMase.
Cells were washed with ice cold PBS and homogenized in neutral lysis buffer (20 mM Tris–HCl pH 7.4, 2 mM EDTA, 5 mM EGTA, 1 mM PMSF, 1% protein cocktail inhibitor and 1 mM sodium orthovanadate) for NSMase assays. Samples were kept on ice 15 min and centrifuged at 14,000 × g for 20 min at 4 °C. 100 µL of each supernatant fraction were incubated at 37 °C for 1hour with working solution. The fluorescence count of produced resorophine in the previous step was measured with a fluorescence micro plate reader by using excitation at 540 nm and emission at 590 nm ([36]).

caspase-9 = assay: Caspase-9 activity, colorimetric substrate Ac-LEHD-pNA; assay type: cell-based, human; details: Hep G2, 48 h, control 0.26
Experimental: as §1, §2

COc1cc([C@H]2Oc3cc([C@H]4Oc5cc(O)cc(O)c5C(=O)[C@@H]4O)ccc3O[C@@H]2CO)ccc1O [SA, silybin A]
GCS activity, effect of treatment [1]: dose dependent inhibition
Caspase-3 (ΔOD 405nm) (caspase-3; 25 micro molar): 0.45 ± 0.055 ΔOD 405nm
Caspase-3 (ΔOD 405nm) (caspase-3; 50 micro molar): 0.58 ± 0.080 ΔOD 405nm
Caspase-3 (ΔOD 405nm) (caspase-3; 75 micro molar): 0.65 ± 0.098 ΔOD 405nm
Caspase-3 (ΔOD 405nm) (caspase-3; 100 micro molar): 0.79 ± 0.107 ΔOD 405nm
Caspase-3 (ΔOD 405nm) (caspase-3; 125 micro molar): 0.91 ± 0.133 ΔOD 405nm
Caspase-3 (ΔOD 405nm) (caspase-3; 150 micro molar): 0.98 ± 0.148 ΔOD 405nm
Caspase-3 (ΔOD 405nm) (caspase-3; 175 micro molar): 1.12 ± 0.164 ΔOD 405nm
Caspase-3 (ΔOD 405nm) (caspase-3; 200 micro molar): 1.06 ± 0.152 ΔOD 405nm
Cell viability (% of control) (Hep G2 cells; 25 micro molar): 97 + 10.0 % of control
Cell viability (% of control) (Hep G2 cells; 50 micro molar): 95 + 10.3 % of control
Cell viability (% of control) (Hep G2 cells; 75 micro molar): 89 + 11.4 % of control
Cell viability (% of control) (Hep G2 cells; 100 micro molar): 83 + 9.5 % of control
Cell viability (% of control) (Hep G2 cells; 125 micro molar): 71 + 8.3^* % of control
Cell viability (% of control) (Hep G2 cells; 150 micro molar): 63 + 7.4^* % of control
Cell viability (% of control) (Hep G2 cells; 175 micro molar): 52 + 6.0^* % of control
Cell viability (% of control) (Hep G2 cells; 200 micro molar): 47 + 5.5^* % of control
NSMase activity in comparison with control [2]: considerable increase
Caspase-9 (ΔOD 405nm) (caspase-9; 25 micro molar): 0.41 ± 0.060 ΔOD 405nm
Caspase-9 (ΔOD 405nm) (caspase-9; 50 micro molar): 0.50 ± 0.089 ΔOD 405nm
Caspase-9 (ΔOD 405nm) (caspase-9; 75 micro molar): 0.61 ± 0.102 ΔOD 405nm
Caspase-9 (ΔOD 405nm) (caspase-9; 100 micro molar): 0.73 ± 0.110 ΔOD 405nm
Caspase-9 (ΔOD 405nm) (caspase-9; 125 micro molar): 0.84 ± 0.133 ΔOD 405nm
Caspase-9 (ΔOD 405nm) (caspase-9; 150 micro molar): 0.96 ± 0.143 ΔOD 405nm
Caspase-9 (ΔOD 405nm) (caspase-9; 175 micro molar): 1.10 ± 0.164 ΔOD 405nm
Caspase-9 (ΔOD 405nm) (caspase-9; 200 micro molar): 1.16 ± 0.147 ΔOD 405nm
